We go through 32 compounds from patent publication US6734196B2, “Substituted pyridine or piperidine compounds” (Les Laboratoires Servier, priority 1999, dated 2004).

The term melting point denotes the temperature of the solid-liquid transition. Compound `CN1CCCCC1CC(=O)c1cccc(Br)c1.I` (centres unmarked) yielded a melting point of 134 to 136 °C. With `COc1ccc(C(=O)Cc2cccc(CC(=O)c3ccc(F)cc3)[n+]2C)cc1.[I-]` the figure was 219 to 220 °C; with `C[n+]1ccccc1C1CCCCC1=O.[I-]` (centres unmarked), 151 to 153 °C. With `COc1ccc(C(=O)Cc2cccc[n+]2C)cc1.F[P-](F)(F)(F)(F)F` the figure was 168 to 170 °C. The result for `C[n+]1c(CC(=O)c2ccc(Cl)cc2)cccc1CC(=O)c1ccc(Br)cc1.O=S(=O)([O-])C(F)(F)F` reads 226 to 228 °C; that for `COc1ccc(C(=O)CC2CCCCN2C)cc1.I` (centres unmarked), 201 to 203 °C; that for `C[n+]1ccccc1CC(=O)c1ccc(Cl)cc1.[I-]`, 212 to 214 °C.

The compound `C[n+]1c(CC(=O)c2ccccc2)cccc1CC(=O)c1ccc(Br)cc1.[I-]` registered a melting point of 218 to 220 °C.

On to `C[n+]1ccccc1CC(=O)c1ccc(Br)cc1.[I-]`, for which the melting point was 222 to 224 °C. The result for `CN1CCCCC1CC(=O)c1ccccc1Br.I` (centres unmarked) reads 163.5 to 164 °C; that for `COc1ccc(C(=O)Cc2cccc(CC(=O)c3ccc(F)cc3)[n+]2C)cc1.O=S(=O)([O-])C(F)(F)F`, 208 to 210 °C; that for `C[n+]1ccccc1CC(=O)c1ccc(Br)cc1.F[P-](F)(F)(F)(F)F`, 185 to 187 °C.

Turning to `C[n+]1ccccc1C=C(c1ccccc1)N1CCCC1.[I-]`, the melting point was in the range of 200 to 202 °C. With `COc1ccc(C(=O)Cc2cccc(CC(=O)c3ccccc3)[n+]2C)cc1.[I-]` the figure was 203 to 205 °C; with `C[n+]1c(CC(=O)c2ccccc2)cccc1CC(=O)c1ccccc1.[I-]`, 197 to 199 °C; with `CN1C(CC(=O)c2ccccc2)CCCC1CC(=O)c1ccc(F)cc1.I` (centres unmarked), 152 to 154 °C. With `C[n+]1c(CC(=O)c2ccccc2)cccc1CC(=O)c1ccc(F)cc1.[I-]` the figure was 220 to 222 °C; with `C[n+]1ccccc1CC(=O)c1ccc(Cl)cc1.F[P-](F)(F)(F)(F)F`, 152 to 154 °C; with `C[n+]1ccccc1CC(=O)c1cccc(Br)c1.[I-]`, 217 to 218 °C. With `CN1CCCCC1CC(=O)c1ccc(Br)cc1.I` (centres unmarked) the figure was 182 to 184 °C; with `CN1C(CC(=O)c2ccccc2)CCCC1CC(=O)c1ccc(Cl)cc1.I` (centres unmarked), 152 to 154 °C. Regarding `COc1ccc(C(=O)Cc2cccc(CC(=O)c3ccccc3)[n+]2C)cc1.O=S(=O)([O-])C(F)(F)F`, the melting point lay within 193 to 195 °C. With `Cc1ccc(C(=O)CC2CCCC(CC(=O)c3ccccc3)N2C)cc1.I` (centres unmarked) the figure was 192 to 193 °C; with `C[n+]1c(C=C(c2ccccc2)N2CCOCC2)cccc1N1CCOCC1.[I-]`, 214 to 216 °C; with `C[n+]1ccccc1CC(=O)c1ccccc1Br.[I-]`, 204 to 205 °C.

Regarding `C[n+]1c(CC(=O)c2ccccc2)cccc1CC(=O)c1ccc(Cl)cc1.[I-]`, the melting point is 213 to 215 °C. With `C[n+]1c(CC(=O)c2ccccc2)cccc1CC(=O)c1ccc(Cl)cc1.O=S(=O)([O-])C(F)(F)F` the figure was 199 to 201 °C; with `CN1C(CC(=O)c2ccc(Cl)cc2)CCCC1CC(=O)c1ccc(Br)cc1.I` (centres unmarked), 200 to 202 °C; with `Cc1ccc(C(=O)Cc2cccc(CC(=O)c3ccccc3)[n+]2C)cc1.[I-]`, 205 to 206 °C. In the case of `COc1ccc(C(=O)Cc2cccc[n+]2C)cc1.[I-]`, the melting point lay in the range of 214 to 216 °C. With `CN1CCCCC1C1CCCCC1=O.I` (centres unmarked) the figure was 160 to 162 °C; with `C[n+]1c(CC(=O)c2ccc(Cl)cc2)cccc1CC(=O)c1ccc(Br)cc1.[I-]`, 226 to 227 °C.
